Laboratory results as given in the NIST ThermoML archive (doi:10.1021/je049971a).

Assay: cn = amount concentration of the nth substance listed, in mol/dm3
Settings: 101 kPa, Liquid; for speed of sound: Pulse-echo method

NC(N)=O [urea] + O
Settings | mass density [kg/m3] | speed of sound [m/s]
283.1 K, c1 = 4.275 | 1069 | 1578.8
288.15 K, c1 = 2.065 | 1032 | 1527.2
288.15 K, c1 = 3.148 | 1049 | 1557.2
288.15 K, c1 = 4.269 | 1067 | 1587.6
288.15 K, c1 = 5.421 | 1084 | 1617
288.15 K, c1 = 7.839 | 1120 | 1676.8
288.15 K, c1 = 9.106 | 1138 | 1706.5
298.15 K, c1 = 2.059 | 1030 | 1548.9
298.15 K, c1 = 3.139 | 1047 | 1574.8
298.15 K, c1 = 4.253 | 1063 | 1601.1
298.15 K, c1 = 5.405 | 1081 | 1627.1
298.15 K, c1 = 7.802 | 1115 | 1680.3
298.15 K, c1 = 9.069 | 1134 | 1706.3
308.15 K, c1 = 2.051 | 1026 | 1564.8
308.15 K, c1 = 3.124 | 1041 | 1587.1
308.15 K, c1 = 4.232 | 1058 | 1610.9
308.15 K, c1 = 5.378 | 1076 | 1633.2
308.15 K, c1 = 7.765 | 1109 | 1680.9
308.15 K, c1 = 9.021 | 1128 | 1704.1
